Assay results reported in patent publication US10967076B2, “Use of non-labeled sugars and detection by MRI for assessing tissue perfusion and metabolism” (The Johns Hopkins University, priority 2010, dated 2021).

What was measured:
[1] = test system: MDA-MB-231 and MCF7 xenografts; experiment: DCE-MRI with GdDTPA (post-Gd-DTPA difference images) of the xenograft mouse; type: in vivo
Excerpt: We applied glucose infusion in vivo on xenografts in mice for two human breast cancer lines: less aggressive (MCF-7) and highly aggressive and metastatic (MDA-MB-231). Our MRI protocol used normal D-glucose (non-radioactive, non-hyperpolarized and not labeled with magnetic isotopes) and monitored this using glucose-based chemical exchange saturation transfer (glucoCEST) MRI. Images were compared with perfusion as assessed by dynamic contrast-enhanced (DCE) MRI and glucose uptake as assessed by FDG-PET. In-vivo animal experiments employed female SCID mice four to six weeks old. Tumor cells were implanted orthotopically in the mammary fat pad in an aseptic surgical procedure according to Institutional Animal Care and Use Committee (IACUC) guidelines. For cell implantation in the mammary fat pad, mice were anesthetized with ketamine and acepromazine (6.25 mg/kg and 62.5 mg/kg) injected in a volume of 0.05 ml using a sterile insulin syringe (28.5 G needle), and a cell suspension containing 1×10^6 MDA-MB-231 cells in 0.05 ml of Hanks balanced salt solution was injected into the upper right thoracic mammary fat pad using a sterile insulin syringe (28.5 G needle). […] Following tumor cell implants, animals were monitored until recovered from anesthesia and then checked after 6 and 12 h, then daily. […]

[2] = test system: MDA-MB-231 and MCF-7 xenografts; experiment: 18F-FDG-PET of the xenograft mouse; type: in vivo; settings: 1 hr post-injection, FIG. 5B
Excerpt: We applied glucose infusion in vivo on xenografts in mice for two human breast cancer lines: less aggressive (MCF-7) and highly aggressive and metastatic (MDA-MB-231). Our MRI protocol used normal D-glucose (non-radioactive, non-hyperpolarized and not labeled with magnetic isotopes) and monitored this using glucose-based chemical exchange saturation transfer (glucoCEST) MRI. Images were compared with perfusion as assessed by dynamic contrast-enhanced (DCE) MRI and glucose uptake as assessed by FDG-PET. In-vivo animal experiments employed female SCID mice four to six weeks old. Tumor cells were implanted orthotopically in the mammary fat pad in an aseptic surgical procedure according to Institutional Animal Care and Use Committee (IACUC) guidelines. For cell implantation in the mammary fat pad, mice were anesthetized with ketamine and acepromazine (6.25 mg/kg and 62.5 mg/kg) injected in a volume of 0.05 ml using a sterile insulin syringe (28.5 G needle), and a cell suspension containing 1×10^6 MDA-MB-231 cells in 0.05 ml of Hanks balanced salt solution was injected into the upper right thoracic mammary fat pad using a sterile insulin syringe (28.5 G needle). […] Following tumor cell implants, animals were monitored until recovered from anesthesia and then checked after 6 and 12 h, then daily.

[3] = test system: MDA-MB-231 and MCF7 xenografts; experiment: dynamic glucoCEST MRI during D-glucose infusion in a xenograft mouse at 11.7 T; type: in vivo; settings: FIGS. 6A-6C
Excerpt: FIGS. 6A-6C show results for a D-glucose infusion experiment with dynamic monitoring of the MR exchange transfer signals for a mouse with two tumor xenografts (MDA-MB-231 and MCF7) at 11.7 T for which a D-glucose infusion protocol similar to the example in FIG. 4 was used.

[4] = test system: MDA-MB-231 and MCF-7 xenografts; experiment: steady-state glucoCEST MRI before and after D-glucose infusion in a xenograft mouse at 9.4 T; type: in vivo, mice; settings: offset 1.2 ppm, blood glucose about 20 mM, preliminary data, FIG. 4F
Excerpt: Tumors are generally characterized by rapid glucose metabolism, increased tissue blood volume, and increased permeability to extravascular extracellular space (EES). We applied glucose infusion in vivo on xenografts in mice for two human breast cancer lines: less aggressive (MCF-7) and highly aggressive and metastatic (MDA-MB-231). Our MRI protocol used normal D-glucose (non-radioactive, non-hyperpolarized and not labeled with magnetic isotopes) and monitored this using glucose-based chemical exchange saturation transfer (glucoCEST) MRI. Images were compared with perfusion as assessed by dynamic contrast-enhanced (DCE) MRI and glucose uptake as assessed by FDG-PET. In-vivo animal experiments employed female SCID mice four to six weeks old. Tumor cells were implanted orthotopically in the mammary fat pad in an aseptic surgical procedure according to Institutional Animal Care and Use Committee (IACUC) guidelines. […] Following tumor cell implants, animals were monitored until recovered from anesthesia and then checked after 6 and 12 h, then daily. […]

O=C([O-])CN(CCN(CC(=O)[O-])CC(=O)O)CCN(CC(=O)[O-])CC(=O)O.[Gd+3] [Gd-DTPA, Gadolinium-DiethyleneTriaminePentaacetic Acid]
visualization of the tumor mass ([1]; 0.2 mmole/kg GdDTPA, FIG. 5C): good visualization of the tumor mass relative to normal tissue | highlighting of the necrotic area in the MCF7 tumor ([1]; Gd perfusion scan): did not highlight the necrotic area in the MCF7 tumor

Fluorodeoxyglucose [^18F-FDG]
glucose uptake on PET [2]: the MDA-MB-231 tumor exhibits a higher glucose uptake than the MCF-7 tumor

O=C[C@H](O)[C@@H](O)[C@H](O)[C@H](O)CO [D-glucose]
uptake (MTRasym signal changes as a function of time during infusion, rim and tumor center) [3]: uptake is higher in the more malignant MDA-MB-231 tumor | glucose uptake (MTR asymmetry histograms before and after infusion, ROIs) [4]: a trend towards higher glucose uptake in the malignant MDA-MB-231 tumor (ROI 1) as well as in the necrotic area in the MCF7 tumor (ROI 2)
